According to ChEMBL document CHEMBL1938343, “Lead optimisation of selective non-zinc binding inhibitors of MMP13. Part 2” (Bioorg Med Chem Lett, 2012):

How the values were obtained:
[1] = Half life in rat at 2 mg/kg, iv; assay type: ADME, organism-based; parameters: dose 2 mg/kg, route intravenous; conditions: in vivo
[2] = Apparent permeability across basolateral to apical side in human Caco2 cells at 10 uM; assay type: ADME, cell-based; conditions: Caco-2
[3] = Cytotoxicity in mouse spleen macrophages assessed as phospholipidosis; conditions: Macrophage
[4] = Intrinsic clearance in human microsomes; assay type: ADME, Microsome
[5] = target: Macrophage metalloelastase (Homo sapiens, UniProt P39900); test: Inhibition of MMP12 using Mca-Pro-cyclohexyl-Ala-Gly-Nva-His-Ala- Dap(Dnp)-NH2 as substrate by fluorometric analysis
Chain of Macrophage metalloelastase (P39900 whole entry): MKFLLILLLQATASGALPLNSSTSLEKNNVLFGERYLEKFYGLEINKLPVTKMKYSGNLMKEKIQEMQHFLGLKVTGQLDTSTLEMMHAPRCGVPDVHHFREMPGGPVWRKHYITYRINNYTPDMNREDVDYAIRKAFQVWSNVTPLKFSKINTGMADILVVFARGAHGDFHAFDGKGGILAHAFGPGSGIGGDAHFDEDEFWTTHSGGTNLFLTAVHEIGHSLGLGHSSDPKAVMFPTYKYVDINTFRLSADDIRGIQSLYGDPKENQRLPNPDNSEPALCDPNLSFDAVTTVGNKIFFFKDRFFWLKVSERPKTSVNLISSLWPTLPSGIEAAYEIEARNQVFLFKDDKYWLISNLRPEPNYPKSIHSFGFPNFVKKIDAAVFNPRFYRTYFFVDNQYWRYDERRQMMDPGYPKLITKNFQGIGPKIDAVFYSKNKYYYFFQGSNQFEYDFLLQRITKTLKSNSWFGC

[6] = Half life in dog at 1 mg/kg, iv and 1 mg/kg, po; assay type: ADME, organism-based, Canis lupus familiaris; conditions: in vivo
[7] = Fraction unbound in rat; assay type: ADME, organism-based; conditions: in vivo
[8] = target: T1, A disintegrin and metalloproteinase with thrombospondin motifs 1 (Homo sapiens) (UniProt Q9UHI8); test: Inhibition of ADAM-TS1 dimethoxyfluorescein-Ser-Pro-Leu-Ala-Gln-Ala- Val-Arg-ser-Ser-Arg-Cys-fluorescein
T1 sequence (whole entry): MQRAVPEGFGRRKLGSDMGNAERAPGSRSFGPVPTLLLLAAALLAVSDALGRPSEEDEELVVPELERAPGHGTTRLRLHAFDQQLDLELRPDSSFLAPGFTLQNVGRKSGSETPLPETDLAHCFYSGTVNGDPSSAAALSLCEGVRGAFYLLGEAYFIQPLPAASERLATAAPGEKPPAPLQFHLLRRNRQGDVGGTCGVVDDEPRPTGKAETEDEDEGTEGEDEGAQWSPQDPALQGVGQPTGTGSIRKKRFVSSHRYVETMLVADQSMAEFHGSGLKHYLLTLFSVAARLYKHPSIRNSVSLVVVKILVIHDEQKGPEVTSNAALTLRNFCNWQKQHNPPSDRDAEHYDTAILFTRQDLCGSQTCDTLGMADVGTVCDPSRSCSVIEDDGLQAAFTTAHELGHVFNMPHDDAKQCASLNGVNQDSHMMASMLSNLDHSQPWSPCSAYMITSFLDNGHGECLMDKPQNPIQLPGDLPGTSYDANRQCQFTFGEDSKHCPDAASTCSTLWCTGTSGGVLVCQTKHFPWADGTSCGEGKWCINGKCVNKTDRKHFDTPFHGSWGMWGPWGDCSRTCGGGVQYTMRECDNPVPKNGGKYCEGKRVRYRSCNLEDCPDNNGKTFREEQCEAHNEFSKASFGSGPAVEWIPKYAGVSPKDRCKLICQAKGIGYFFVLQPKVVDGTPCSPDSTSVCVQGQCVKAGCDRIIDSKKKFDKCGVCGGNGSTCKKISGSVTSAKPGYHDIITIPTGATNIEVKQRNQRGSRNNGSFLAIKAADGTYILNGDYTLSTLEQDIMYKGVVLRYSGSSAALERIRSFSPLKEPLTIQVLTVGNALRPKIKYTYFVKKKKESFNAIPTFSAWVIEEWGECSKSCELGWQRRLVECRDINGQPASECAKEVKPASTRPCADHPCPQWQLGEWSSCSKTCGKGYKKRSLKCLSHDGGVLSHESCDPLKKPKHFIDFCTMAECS

[9] = Fraction unbound in human; assay type: ADME, organism-based; conditions: in vivo
[10] = Clearance in dog at 1 mg/kg, iv and 1 mg/kg, po; assay type: ADME, organism-based, Canis lupus familiaris; conditions: in vivo
[11] = target: Matrix metalloproteinase-14 (Homo sapiens, UniProt P50281); test: Inhibition of MMP14 using Mca-Pro-cyclohexyl-Ala-Gly-Nva-His-Ala- Dap(Dnp)-NH2 as substrate by fluorometric analysis
[12] = Oral bioavailability in rat; assay type: ADME, organism-based; conditions: in vivo

SMILES: CN1CCC(NC(=O)c2ccc(Oc3ccc(C#C[C@]4(O)CN5CCC4CC5)cc3)cc2)CC1
- half-life [1]: 10.1 h
- Papp B→A at 10 µM [2]: 74 nm/s
- EC50 [3]: 8 µM
- microsomal CLint [4]: 2.6 µL/min/mg
- IC50 ([5]; read-out: IC50): > 8 µM
- IC50 ([5]; read-out: pIC50 (converted)): 7.94 µM
- half-life [6]: 23 h
- fraction unbound [7]: 0.73
- INH [8]: > 100 µM
- fraction unbound [9]: 0.41
- clearance [10]: 0.216 L/h/kg
- pIC50 [11]: < 5
- IC50 ([11]; read-out: IC50): > 10 µM
- bioavailability [12]: 2%
